Structures can show the parent of a compound that is named as a salt. Where two headings read alike, the source gives them in different places.
How the values were obtained:
[1] = biological target: T1, topoisomerase I-DNA complexes (Homo sapiens, UniProt P11387); test: Topoisomerase I-DNA complexes in LS513 cells; type: cell-based; settings: factor 25%, 50 μM irinotecan
T1 construct: endogenous in cells; host or cells: LS513
T1 sequence (P11387 1-765): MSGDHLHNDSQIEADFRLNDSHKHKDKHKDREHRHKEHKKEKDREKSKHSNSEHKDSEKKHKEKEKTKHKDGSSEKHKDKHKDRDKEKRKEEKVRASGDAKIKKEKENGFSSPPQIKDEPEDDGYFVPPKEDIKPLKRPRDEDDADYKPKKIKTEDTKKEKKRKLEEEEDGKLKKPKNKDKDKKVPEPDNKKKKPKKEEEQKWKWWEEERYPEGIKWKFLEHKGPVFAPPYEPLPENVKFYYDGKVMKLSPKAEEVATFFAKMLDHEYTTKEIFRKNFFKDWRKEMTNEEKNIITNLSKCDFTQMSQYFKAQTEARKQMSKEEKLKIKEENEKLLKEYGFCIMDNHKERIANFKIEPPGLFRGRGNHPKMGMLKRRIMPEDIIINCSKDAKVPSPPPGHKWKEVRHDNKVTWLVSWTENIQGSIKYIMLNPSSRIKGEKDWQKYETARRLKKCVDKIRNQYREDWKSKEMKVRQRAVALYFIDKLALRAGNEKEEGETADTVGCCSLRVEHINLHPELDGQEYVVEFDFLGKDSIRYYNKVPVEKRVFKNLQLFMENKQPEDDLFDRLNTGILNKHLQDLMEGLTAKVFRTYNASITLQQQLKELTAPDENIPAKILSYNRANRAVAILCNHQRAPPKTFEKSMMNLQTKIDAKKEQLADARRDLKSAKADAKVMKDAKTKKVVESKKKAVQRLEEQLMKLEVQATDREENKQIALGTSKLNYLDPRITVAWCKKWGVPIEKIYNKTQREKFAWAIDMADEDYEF
Description: Three different concentrations of DNA (recovered from the DNA peak fractions of each CsCI gradient) were spotted onto the membrane.
The blot was placed on a phosphorimager and signal strengths from the 2 μg slots were quantified. Based upon comparison to a known standard of purified topoisomerase I on the same blot, the signals are expressed as ng or topoisomerase I per ml of DNA=no additions (i.e., untreated). The data are quantified in Table 22 and FIG. 35.

[2] = tested on: FasR (CD95) of LS513 cells; test: FasR (CD95) expression by flow cytometry, LS513; type: cell-based, human
Description: (§1) Flow cytometry was used to assess FasR expression and cell cycle. Analysis of cell cycle was performed using propidium iodide on a Coulter EPICS Elite flow cytometer (Coulter Corporation) equipped with a 488 nm, 15 mW, air-cooled Argon laser. […] Optical laser alignment calibration of the flow cytometer was performed using Coulter's DNA-Check EPICS alignment fluorosphere beads with coefficient of variations routinely less than 2%. PI fluorescent light emission was collected through a 610 nm, long-pass transmission filter. PI signal was measured in linear mode and extended analysis of DNA content was performed using the ModFit LT program (Verity Software House, Inc., Topsham, Me.). Data are presented as the percentage of cells in G1-G0, S and G2-M.

[3] = tested on: FasR (CD95) of SW480 cells; test: FasR (CD95) expression by flow cytometry, SW480; type: cell-based, human
Description: as §1

caspase-8 [4] = test: Caspase-8 activity, colorimetric, colorectal cancer cells; type: cell-based, human
Description: (§2) Caspase-3 and caspase-8 activities were determined using a calorimetric assay kit (R&D Systems, Inc., Minneapolis, Minn.). Assays were conducted according to the instructions of the manufacturer.

caspase-3 [5] = test: Caspase-3 activity, colorimetric, colorectal cancer cells; type: cell-based, human
Description: as §2

LS513 cells = test: Proliferation assay with median effect analysis, LS513; type: cell-based; settings: Homo sapiens, LS-513, topotecan 1 μg/ml, supernatant 25% v/v, antibodies 10 μg/ml, read-out: Fractional Inhibition
Description: (§3) MTS was added for the final 5 hours of culture as recommended by the manufacturer (CelTiter, 96 AQueous Non-Radioactive Cell Proliferation Assay, Promega, Madison, Wis.), and the absorbence was read in a DigiScan reader (ASYS Hitech, Austria) at A492 nm. Samples were evaluated in triplicate. Tumor cells cultured in maintenance media with no addition and the maintenance media alone were used as controls. Fractional inhibition was determined by the following formula: [formula]
According to this method, “synergy” is indicated by a Cl of less than 1, “addition” by a Cl equal to 1, and “antagonism” by a Cl greater than 1. A Cl of less than 0.3 is considered to represent “strong synergism”, and a Cl greater than 3.3 is considered to represent “strong antagonism”.

[6] = tested on: Fas (CD95) of SKBR3 cells; test: Fas (CD95) expression by flow cytometry, SKBR3; type: cell-based, human; settings: tamoxifen 10 μg/ml
Description: as §1, with “assess Fas” for “assess FasR”, “cycle. Cells were reacted sequentially with mAb to Fas (CD95) and then with a fluorescenated goat anti-mouse antibody, according to the recommendations of the manufacturer. Percent fluorescent cells and fluorescence intensity was determined using an Epics Elite cytofluorograph (Coulter Corp.). All samples were compared to their isotype-matched controls.” for “cycle.”, “cytometer” for “cytometer (Coulter Corporation)”, “using” for “using the”, “LT program, as described above.” for “LT program (Verity Software House, Inc., Topsham, Me.).”, “G1-G0, S,” for “G1-G0, S”

SKBR3 cells = test: Tumor proliferation assay (MTS), SKBR3; type: cell-based, human; settings: tamoxifen 10 μg/ml; for inhibition at 10 µg/mL: Homo sapiens, SKBR3, Factor C 5% v/v, read-out: Fractional Inhibition
Description: as §3, with “(CeiTiter” for “(CelTiter,”, “AQueous,” for “AQueous”, “Assay;” for “Assay,”, “formula set forth above.” for “following formula: [formula]”
The combined effects of the drugs and supernatants were analyzed by the median effect method of Chou and Talalay using CalcuSyn software (see above). […] According to this method, “synergy” is indicated by a Cl of less than 1, “addition” by a Cl equal to 1, and “antagonism” by a Cl greater than 1. A Cl of less than 0.3 is considered to represent “strong synergism”, and a Cl greater than 3.3 is considered to represent “strong antagonism”.

caspase-8 [7] = test: Caspase-8 activity, SKBR3; type: cell-based, human; settings: Factor C 5% v/v, tamoxifen 10 μg/ml
Description: (§4) Caspase-3 and caspase-8 activities were determined using a calorimetric assay kit (R&D Systems, Inc., Minneapolis, Minn.). Assays were conducted according to the instructions of the manufacturer. Protein kinase C, Prote3in kinase c alpha and delta levels were determined by immunoprecipitation and Western blotting, as previously described. Hofmeister, et al., “Clustered CD20 induced apoptosis: src-family kinase, the proximal regulator of tyrosine phosphorylation, calcium influx, and caspase 3-dependent apoptosis”, Blood Cells Mol Dis, 26:133-43, 2000.

caspase-3 [8] = test: Caspase-3 activity, SKBR3; type: cell-based, human; settings: Factor C 5% v/v, tamoxifen 10 μg/ml
Description: as §4

SW480 cells = test: Proliferation assay (MTS), SW480; type: cell-based, human; settings: Table 13; supernatant 25% v/v; IFN-γ, TNF-α 1,000 U/ml; antibodies 10 μg/ml
Description: as §3, with “Unstimulated and stimulated supernatants, as well as the expansion media, were added at a range of volumes to SW480, LS174T, or Jurkat cells or cultured in their maintenance media in 24-well plates for 96 hours. MTS” for “MTS”

[9] = biological target: soluble Fas ligand (sFasL) in supernatants of anti-CD3/IL-2 activated-expanded T cells (human) (UniProt P48023); test: cell-based or functional assay
Chain of soluble Fas ligand (sFasL) in supernatants of anti-CD3/IL-2 activated-expanded T cells (human) (P48023 130-281 limits assumed): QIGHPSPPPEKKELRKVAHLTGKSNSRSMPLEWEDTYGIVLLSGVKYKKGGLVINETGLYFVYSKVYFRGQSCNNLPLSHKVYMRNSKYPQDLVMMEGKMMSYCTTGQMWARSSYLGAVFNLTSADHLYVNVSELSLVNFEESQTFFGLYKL

CCc1c2c(nc3ccc(OC(=O)N4CCC(N5CCCCC5)CC4)cc13)-c1cc3c(c(=O)n1C2)COC(=O)[C@]3(O)CC [CPT, Irinotecan HCl] was tested, and the “topoisomerase I-DNA complexes signal” value ([1]; Time 1 hrs) was 3.93 ng or topoisomerase I per ml of DNA, the “topoisomerase I-DNA complexes signal” value ([1]; Time 12 hrs) was 4.83 ng or topoisomerase I per ml of DNA and the “topoisomerase I-DNA complexes signal” value ([1]; Time 48 hrs) was 5.37 ng or topoisomerase I per ml of DNA. The CD95 [2] was 13, the CD95 [3] was 13 and the Caspase-8 (caspase-8 [4]; LS513 Cells) was 0.11. For the same molecule, the Caspase-8 (caspase-8 [4]; SW480 Cells) was 0.11, the Caspase-3 (caspase-3 [5]; LS513 Cells) was 0.12 and the Caspase-3 (caspase-3 [5]; SW480 Cells) was 0.12.

With CC[C@@]1(O)C(=O)OCc2c1cc1n(c2=O)Cc2cc3c(CN(C)C)c(O)ccc3nc2-1 [TPT, Topotecan] the inhibition at 1 µg/mL (LS513 cells) was 51%.

With CC/C(=C(\c1ccccc1)c1ccc(OCCN(C)C)cc1)c1ccccc1 [Tamoxifen] the CD95 ([6]; Table 27, SKBR3 cells) was 11, the “CD 95 Cells” value ([6]; Table 29, SKBR3, CD95 mean cell fluorescence, Factor C 5% v/v) was 1.8 and the inhibition at 10 µg/mL (SKBR3 cells; SK-BR-3, Table 28, blocking antibody 50 μg/ml) was 32%. It also gave an inhibition at 10 µg/mL (SKBR3 cells; SK-BR-3, Table 29) of 44.5%, an F1 (SKBR3 cells; Table 27, SKBR3 cells) of 0.28 and a Caspase-8 (caspase-8 [7]) of 0.01. For the same molecule, the Caspase-3 (caspase-3 [8]) was 0.12.

B1: IFN: human recombinant IFN-γ (protein, UniProt P01579 24-161, looked up)
Interferon gamma: QDPYVKEAENLKKYFNAGHSDVADNGTLFLGILKNWKEESDRKIMQSQIVSFYFKLFKNFKDDQSIQKSVETIKEDMNVKFFNSNKKKRDDFEKLTNYSVTDLNVQRKAIHELIQVMAELSPAAKTGKRKRSQMLFRG
For B1, the “Fractional Inhibition - Run 1” value (SW480 cells) was 0.01 and the “Fractional Inhibition - Run 2” value (SW480 cells) was 0.011.

B2: anti-FasL antibody NOK1 (antibody, from another filing, V domains shown)
VH: VQLQESGPELVKPGASVKISCKASGYAFSSSWMNWVKQRPGKGLEWIGRIYPGDGDTNDNGKFKGKATLTADKSSSTAYMQLSSLTSEDSAVYFCARSYYYDGSPWFTYWGQGTTVTVSS
VL: DIQMTQSPSSLSASLGDRVTISCRASQDISNYLNWYQQKPDGTVKLLIYYTSRLHSGVPSRFSGSGSGTDYSLTISNLEPEDIATYFCQQYSEFPWTFGGGTKLEIKR
B2 showed a Fractional Inhibition - Run 1, Supernatant + anti-FasL (supernatant alone 0.36) [9] of 0.15, a Fractional Inhibition - Run 2, Supernatant + anti-FasL (supernatant alone 0.41) [9] of 0.21 and a Fractional Inhibition, Sup + TPT + anti-FasL on LS513 cells (Sup + TPT alone 0.84) [9] of 0.69.

— patent US20020106375A1, “Non-cytolytic soluble factor from activated-expanded CD4 cells” (priority 2000, published 2002)
